Key:
[1] = target: PI3K p110 beta/p85 beta (Mus musculus) (UniProt Q8BTI9+O08908); experiment: Inhibition of recombinant full-length mouse p110b/p85b at 1 uM using phosphatidylinositol 4,5-bisphosphate as substrate after 40 mins in presence of [gamma-33P]ATP by scintillation counting method; format: protein-complex assay
[2] = target: FKBP12A/mTOR (Homo sapiens) (UniProt P62942+P42345); experiment: Inhibition of recombinant full-length human mTOR/FKBP12 at 1 uM after 40 mins in presence of [gamma-33P]ATP by scintillation counting method; format: protein-complex assay
[3] = target: Vascular endothelial growth factor receptor 1 (Homo sapiens) (UniProt P17948); experiment: Inhibition of recombinant human Flt1 (783 to end residues) at 1 uM using KKKSPGEYVNIEFG as substrate after 40 mins in presence of [gamma-33P]ATP by scintillation counting method
Vascular endothelial growth factor receptor 1 (Homo sapiens), sequence (P17948 whole entry): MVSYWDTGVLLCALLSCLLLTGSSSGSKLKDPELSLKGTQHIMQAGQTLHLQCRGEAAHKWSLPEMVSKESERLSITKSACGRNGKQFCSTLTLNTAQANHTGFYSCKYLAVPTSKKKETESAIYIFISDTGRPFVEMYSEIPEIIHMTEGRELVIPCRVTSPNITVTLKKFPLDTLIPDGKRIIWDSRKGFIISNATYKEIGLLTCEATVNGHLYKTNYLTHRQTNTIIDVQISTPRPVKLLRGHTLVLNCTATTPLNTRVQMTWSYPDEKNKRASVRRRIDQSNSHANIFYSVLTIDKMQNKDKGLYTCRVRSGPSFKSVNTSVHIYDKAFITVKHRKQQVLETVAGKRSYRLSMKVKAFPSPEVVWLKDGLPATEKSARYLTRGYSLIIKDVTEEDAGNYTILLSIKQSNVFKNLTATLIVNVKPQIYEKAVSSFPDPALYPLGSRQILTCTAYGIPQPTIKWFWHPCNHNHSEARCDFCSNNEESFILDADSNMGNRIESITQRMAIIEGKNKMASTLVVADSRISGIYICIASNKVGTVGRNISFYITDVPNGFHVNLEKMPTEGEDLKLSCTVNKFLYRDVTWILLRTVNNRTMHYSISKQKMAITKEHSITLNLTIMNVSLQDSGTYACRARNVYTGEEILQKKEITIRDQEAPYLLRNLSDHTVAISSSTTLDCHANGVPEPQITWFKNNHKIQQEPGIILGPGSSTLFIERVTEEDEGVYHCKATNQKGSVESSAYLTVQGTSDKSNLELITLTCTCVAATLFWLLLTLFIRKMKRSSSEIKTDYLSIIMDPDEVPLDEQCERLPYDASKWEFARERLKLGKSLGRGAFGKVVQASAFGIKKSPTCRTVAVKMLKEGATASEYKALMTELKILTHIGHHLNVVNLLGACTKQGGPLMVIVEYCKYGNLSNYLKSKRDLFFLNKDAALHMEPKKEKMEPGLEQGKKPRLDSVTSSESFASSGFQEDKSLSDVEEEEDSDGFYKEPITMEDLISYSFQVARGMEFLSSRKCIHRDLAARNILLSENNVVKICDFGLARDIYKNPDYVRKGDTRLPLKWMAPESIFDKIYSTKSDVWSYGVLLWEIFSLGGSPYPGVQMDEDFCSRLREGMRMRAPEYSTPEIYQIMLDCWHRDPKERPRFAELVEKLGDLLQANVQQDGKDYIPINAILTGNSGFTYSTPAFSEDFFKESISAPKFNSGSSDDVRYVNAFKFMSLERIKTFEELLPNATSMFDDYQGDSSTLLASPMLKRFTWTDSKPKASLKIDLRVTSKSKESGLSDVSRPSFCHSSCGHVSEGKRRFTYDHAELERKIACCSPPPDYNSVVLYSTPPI

[4] = target: Serine/threonine-protein kinase B-raf (Homo sapiens) (UniProt P15056); experiment: Inhibition of recombinant human B-raf (416 to end residues) at 1 uM using myelin basic protein as substrate after 40 mins in presence of [gamma-33P]ATP by scintillation counting method
[5] = target: Ribosomal protein S6 kinase alpha-3 (Homo sapiens) (UniProt P51812); experiment: Inhibition of recombinant human Rsk2 (2 to end residues) at 1 uM using KKKNRTLSVA as substrate after 40 mins in presence of [gamma-33P]ATP by scintillation counting method
[6] = target: Myosin-IIIb (Homo sapiens) (UniProt Q8WXR4); experiment: Inhibition of recombinant human MYO3B (1 to 326 residues) at 1 uM using RLGRDKYKTLRQIRQ as substrate after 40 mins in presence of [gamma-33P]ATP by scintillation counting method
[7] = target: Receptor-type tyrosine-protein kinase FLT3 (Homo sapiens) (UniProt P36888); experiment: Inhibition of recombinant human Flt3 (564 to end residues) at 1 uM using EAIYAAPFAKKK as substrate after 40 mins in presence of [gamma-33P]ATP by scintillation counting method
[8] = Apparent volume of distribution in mouse at 2 mg/kg, iv or 10 mg/kg, po; format: ADME, organism-based; conditions: in vivo, read-out: Vz
[9] = target: Calcium/calmodulin-dependent protein kinase type II subunit beta (Homo sapiens) (UniProt Q13554); experiment: Inhibition of recombinant human CAMK2beta (1 to 315 residues) at 1 uM using […] after 40 mins in presence of [gamma-33P]ATP by scintillation counting method
[10] = tested on: Mast/stem cell growth factor receptor Kit (Homo sapiens), P10721 [D816V]; experiment: Inhibition of recombinant human cKit D816V mutant (544 to end residues) at 1 uM using poly(Glu,Tyr) 4:1 as substrate after 40 mins in presence of [gamma-33P]ATP by scintillation counting method
Mast/stem cell growth factor receptor Kit (Homo sapiens), P10721 [D816V], sequence (P10721 whole entry D816V): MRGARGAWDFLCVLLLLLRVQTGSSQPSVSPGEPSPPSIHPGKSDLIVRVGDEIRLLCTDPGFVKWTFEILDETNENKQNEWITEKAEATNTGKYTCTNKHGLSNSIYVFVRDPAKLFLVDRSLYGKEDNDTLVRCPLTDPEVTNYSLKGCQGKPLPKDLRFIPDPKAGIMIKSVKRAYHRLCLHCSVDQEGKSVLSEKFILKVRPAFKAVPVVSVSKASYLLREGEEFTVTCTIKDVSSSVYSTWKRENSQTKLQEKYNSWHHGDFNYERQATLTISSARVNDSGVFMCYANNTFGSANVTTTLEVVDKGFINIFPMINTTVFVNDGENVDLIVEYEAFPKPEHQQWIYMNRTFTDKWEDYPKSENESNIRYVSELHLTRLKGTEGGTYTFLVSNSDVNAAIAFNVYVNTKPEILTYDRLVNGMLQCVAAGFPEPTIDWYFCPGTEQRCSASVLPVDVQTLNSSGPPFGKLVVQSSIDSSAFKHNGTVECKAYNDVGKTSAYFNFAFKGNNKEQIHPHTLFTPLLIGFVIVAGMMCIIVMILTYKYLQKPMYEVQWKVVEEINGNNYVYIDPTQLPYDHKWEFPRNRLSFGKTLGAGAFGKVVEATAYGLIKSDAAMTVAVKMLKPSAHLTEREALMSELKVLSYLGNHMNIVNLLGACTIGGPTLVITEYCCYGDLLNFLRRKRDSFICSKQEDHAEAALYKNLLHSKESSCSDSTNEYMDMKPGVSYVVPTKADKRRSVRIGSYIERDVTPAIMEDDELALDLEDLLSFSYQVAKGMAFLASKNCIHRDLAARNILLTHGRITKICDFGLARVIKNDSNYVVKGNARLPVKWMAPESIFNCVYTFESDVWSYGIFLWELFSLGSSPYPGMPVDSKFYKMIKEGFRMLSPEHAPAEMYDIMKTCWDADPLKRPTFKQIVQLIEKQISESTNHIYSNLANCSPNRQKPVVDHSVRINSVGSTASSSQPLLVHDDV

[11] = target: 5'-AMP-activated protein kinase catalytic subunit alpha-2 (Homo sapiens) (UniProt P54646); experiment: Inhibition of recombinant full-length human AMPKalpha2 at 1 uM using AMARAASAAALARRR as substrate after 40 mins in presence of [gamma-33P]ATP by scintillation counting method
[12] = tested on: Fibroblast growth factor receptor 2 (Homo sapiens), P21802 [N549H]; experiment: Inhibition of recombinant human FGFR2 N549H mutant (456 to 770 residues) at 1 uM using GGEEEEYFELVKKKK as substrate after 40 mins in presence of [gamma-33P]ATP by scintillation counting method
Fibroblast growth factor receptor 2 (Homo sapiens), P21802 [N549H], sequence (P21802 whole entry N549H, the tested form may be a part): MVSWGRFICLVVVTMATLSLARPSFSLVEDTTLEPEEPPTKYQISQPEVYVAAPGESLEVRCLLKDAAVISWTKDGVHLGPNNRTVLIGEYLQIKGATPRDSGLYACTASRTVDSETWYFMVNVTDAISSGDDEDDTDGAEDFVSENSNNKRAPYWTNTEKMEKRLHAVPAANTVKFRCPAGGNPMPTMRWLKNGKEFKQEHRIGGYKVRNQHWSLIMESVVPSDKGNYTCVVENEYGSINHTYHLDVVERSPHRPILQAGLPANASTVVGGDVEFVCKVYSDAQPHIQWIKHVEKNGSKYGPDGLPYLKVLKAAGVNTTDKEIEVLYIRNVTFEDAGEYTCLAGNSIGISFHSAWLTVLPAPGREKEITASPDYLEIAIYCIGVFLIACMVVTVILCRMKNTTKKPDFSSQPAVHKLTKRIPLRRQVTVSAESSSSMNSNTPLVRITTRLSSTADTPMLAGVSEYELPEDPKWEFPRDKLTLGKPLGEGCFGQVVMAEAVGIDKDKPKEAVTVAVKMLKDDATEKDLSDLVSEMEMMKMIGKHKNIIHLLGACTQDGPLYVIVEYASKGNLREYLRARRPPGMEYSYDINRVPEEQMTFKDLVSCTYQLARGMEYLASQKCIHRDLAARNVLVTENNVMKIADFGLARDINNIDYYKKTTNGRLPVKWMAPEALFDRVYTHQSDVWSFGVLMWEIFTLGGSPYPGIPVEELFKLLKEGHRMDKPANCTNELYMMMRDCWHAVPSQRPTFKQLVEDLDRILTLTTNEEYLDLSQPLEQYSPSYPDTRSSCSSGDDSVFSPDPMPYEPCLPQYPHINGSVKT

[13] = target: NUAK family SNF1-like kinase 2 (Homo sapiens) (UniProt Q9H093); experiment: Inhibition of recombinant full-length human NUAK2 at 1 uM using KKKVSRSGLYRSPSMPENLNRPR as substrate after 40 mins in presence of [gamma-33P]ATP by scintillation counting method
NUAK family SNF1-like kinase 2 (Homo sapiens), sequence (Q9H093 whole entry): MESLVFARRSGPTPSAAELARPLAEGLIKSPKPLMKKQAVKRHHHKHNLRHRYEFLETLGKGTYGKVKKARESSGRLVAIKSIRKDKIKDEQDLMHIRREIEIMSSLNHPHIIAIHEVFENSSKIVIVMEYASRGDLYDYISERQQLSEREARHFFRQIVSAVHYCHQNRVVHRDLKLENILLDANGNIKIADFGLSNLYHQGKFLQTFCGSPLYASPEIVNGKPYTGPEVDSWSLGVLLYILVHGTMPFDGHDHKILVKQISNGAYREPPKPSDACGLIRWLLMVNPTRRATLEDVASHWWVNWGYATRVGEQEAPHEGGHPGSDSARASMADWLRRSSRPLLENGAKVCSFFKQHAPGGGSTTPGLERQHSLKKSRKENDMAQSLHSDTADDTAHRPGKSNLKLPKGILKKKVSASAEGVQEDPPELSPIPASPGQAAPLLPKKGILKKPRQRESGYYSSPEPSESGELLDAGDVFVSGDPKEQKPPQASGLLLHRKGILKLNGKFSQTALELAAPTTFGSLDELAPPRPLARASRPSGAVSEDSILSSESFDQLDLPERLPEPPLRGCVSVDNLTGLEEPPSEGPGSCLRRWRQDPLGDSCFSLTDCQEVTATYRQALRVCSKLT

[14] = tested on: Angiopoietin-1 receptor (Homo sapiens), Q02763 [Y897S]; experiment: Inhibition of recombinant activated human Tie2 Y897S mutant (771 to end residues) at 1 uM using EFPIYDFLPAKKK as substrate after 40 mins in presence of [gamma-33P]ATP by scintillation counting method
[15] = target: Myosin light chain kinase 2, skeletal/cardiac muscle (Homo sapiens) (UniProt Q9H1R3); experiment: Inhibition of full-length recombinant human MYLK2 at 1 uM using KKLNRTLSFAEPG as substrate after 40 mins in presence of [gamma-33P]ATP by scintillation counting method
[16] = target: cGMP-dependent protein kinase 1 (Homo sapiens) (UniProt Q13976); experiment: Inhibition of recombinant full-length human PKG1alpha at 1 uM using RRRLSFAEPG as substrate after 40 mins in presence of [gamma-33P]ATP by scintillation counting method
[17] = target: Casein kinase I isoform gamma-2 (Homo sapiens) (UniProt P78368); experiment: Inhibition of recombinant human CK1gamma2 (18 to end residues) at 1 uM using KRRRALS(p)VASLPGL s substrate after 40 mins in presence of [gamma-33P]ATP by scintillation counting method
[18] = target: Tyrosine-protein kinase CSK (Homo sapiens) (UniProt P41240); experiment: Inhibition of recombinant full-length human CSK at 1 uM using poly(Glu,Tyr) 4:1 as substrate after 40 mins in presence of [gamma-33P]ATP by scintillation counting method
[19] = target: Serine/threonine-protein kinase PAK 5 (Homo sapiens) (UniProt Q9P286); experiment: Inhibition of recombinant human PAK5 (425 to end residues) at 1 uM using RRRLSFAEPG as substrate after 40 mins in presence of [gamma-33P]ATP by scintillation counting method
[20] = target: Leukocyte tyrosine kinase receptor (Homo sapiens) (UniProt P29376); experiment: Inhibition of recombinant human LTK (450 to end residues) at 1 uM using GEEPLYWSFPAKKK as substrate after 40 mins in presence of [gamma-33P]ATP by scintillation counting method
Leukocyte tyrosine kinase receptor (Homo sapiens), sequence (P29376 whole entry): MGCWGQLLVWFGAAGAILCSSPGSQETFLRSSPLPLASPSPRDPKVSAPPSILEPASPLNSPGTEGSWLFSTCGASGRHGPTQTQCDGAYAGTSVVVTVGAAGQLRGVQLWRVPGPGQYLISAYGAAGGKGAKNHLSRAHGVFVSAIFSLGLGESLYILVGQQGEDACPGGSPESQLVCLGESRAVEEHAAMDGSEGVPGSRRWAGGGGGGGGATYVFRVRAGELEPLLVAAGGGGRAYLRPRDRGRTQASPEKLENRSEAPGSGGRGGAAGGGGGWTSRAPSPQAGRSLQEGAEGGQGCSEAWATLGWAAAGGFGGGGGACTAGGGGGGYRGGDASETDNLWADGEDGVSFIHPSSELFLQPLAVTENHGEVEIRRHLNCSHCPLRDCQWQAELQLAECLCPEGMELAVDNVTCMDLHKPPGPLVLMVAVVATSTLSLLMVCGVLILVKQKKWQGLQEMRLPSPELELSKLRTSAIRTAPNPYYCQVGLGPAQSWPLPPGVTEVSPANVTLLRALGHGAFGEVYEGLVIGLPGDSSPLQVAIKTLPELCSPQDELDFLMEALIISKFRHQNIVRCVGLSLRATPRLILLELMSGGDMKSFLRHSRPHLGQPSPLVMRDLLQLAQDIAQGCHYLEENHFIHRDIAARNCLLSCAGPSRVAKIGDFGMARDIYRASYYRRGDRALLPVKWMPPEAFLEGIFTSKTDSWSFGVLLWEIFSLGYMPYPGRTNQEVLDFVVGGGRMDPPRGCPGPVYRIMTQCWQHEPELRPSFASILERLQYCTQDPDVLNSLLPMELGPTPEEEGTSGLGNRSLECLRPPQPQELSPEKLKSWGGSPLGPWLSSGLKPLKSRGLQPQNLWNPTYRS

[21] = target: Serine/threonine-protein kinase MARK1 (Homo sapiens) (UniProt Q9P0L2); experiment: Inhibition of recombinant human MARK1 (2 to end residues) at 1 uM using KKKVSRSGLYRSPSMPENLNRPR as substrate after 40 mins in presence of [gamma-33P]ATP by scintillation counting method
[22] = target: Misshapen-like kinase 1 (Homo sapiens) (UniProt Q8N4C8); experiment: Inhibition of recombinant human MINK (1 to 310 residues) at 1 uM using myelin basic protein as substrate after 40 mins in presence of [gamma-33P]ATP by scintillation counting method
[23] = target: Fibroblast growth factor receptor 4 (Homo sapiens) (UniProt P22455); experiment: Inhibition of recombinant human FGFR4 (442 to 755 residues) at 1 uM using poly(Glu,Tyr) 4:1 as substrate after 40 mins in presence of [gamma-33P]ATP by scintillation counting method
[24] = target: Serine/threonine-protein kinase Sgk1 (Homo sapiens) (UniProt O00141); experiment: Inhibition of recombinant human SGK (60 to end residues) at 1 uM using GRPRTSSFAEGKK as substrate after 40 mins in presence of [gamma-33P]ATP by scintillation counting method
Serine/threonine-protein kinase Sgk1 (Homo sapiens), sequence (O00141 whole entry): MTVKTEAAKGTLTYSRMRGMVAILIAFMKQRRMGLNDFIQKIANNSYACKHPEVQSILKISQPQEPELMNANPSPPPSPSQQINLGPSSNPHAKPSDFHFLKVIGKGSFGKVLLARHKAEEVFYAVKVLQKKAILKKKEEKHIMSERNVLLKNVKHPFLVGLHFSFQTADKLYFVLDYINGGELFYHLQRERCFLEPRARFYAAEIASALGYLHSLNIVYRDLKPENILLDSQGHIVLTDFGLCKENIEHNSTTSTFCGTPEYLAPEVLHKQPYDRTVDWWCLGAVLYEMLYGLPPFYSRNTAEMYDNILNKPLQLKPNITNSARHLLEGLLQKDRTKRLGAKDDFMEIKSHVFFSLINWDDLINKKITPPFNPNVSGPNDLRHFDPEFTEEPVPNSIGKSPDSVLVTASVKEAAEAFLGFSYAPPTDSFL

**Q.** For `CS(=O)(=O)c1ccc(-n2nc(-c3cnc4[nH]ccc4c3)c3c(N)ncnc32)cc1`, which inhibition [1] is on record?
**A.** 1%

**Q.** What about the inhibition [2] of the same molecule?
**A.** 78%

**Q.** And the inhibition [3]?
**A.** 59%

**Q.** And the inhibition [4]?
**A.** 89%

**Q.** And the inhibition [5]?
**A.** -5%

**Q.** What about the inhibition [6] of the same molecule?
**A.** 5%

**Q.** What about the inhibition [7] of the same molecule?
**A.** 16%

**Q.** What about the Vd [8] of the same molecule?
**A.** 2.15 L/kg

**Q.** What about the inhibition [9] of the same molecule?
**A.** -4%

**Q.** What about the inhibition [10] of the same molecule?
**A.** -2%

**Q.** What about the inhibition [11] of the same molecule?
**A.** -9%

**Q.** And the inhibition [12]?
**A.** 70%

**Q.** What about the inhibition [13] of the same molecule?
**A.** 18%

**Q.** And the inhibition [14]?
**A.** 1%

**Q.** What about the inhibition [15] of the same molecule?
**A.** 18%

**Q.** And the inhibition [16]?
**A.** -8%

**Q.** And the inhibition [17]?
**A.** 18%

**Q.** And the inhibition [18]?
**A.** 3%

**Q.** What about the inhibition [19] of the same molecule?
**A.** 20%

**Q.** And the inhibition [20]?
**A.** -3%

**Q.** And the inhibition [21]?
**A.** -7%

**Q.** What about the inhibition [22] of the same molecule?
**A.** -10%

**Q.** And the inhibition [23]?
**A.** 3%

**Q.** And the inhibition [24]?
**A.** 2%
